Values of other authors as cited in patent publication US20060160157A1, “Method, compositions and classification for tumor diagnostics and treatment” (priority 2005, published 2006).

Key:
[1] = pH change 7.5 to 4.0
GRP-R = GRP-R (Homo sapiens, UniProt P30550); conditions: radiolabeled bombesin as radioligand
Sequence of GRP-R (P30550 whole entry, species assumed): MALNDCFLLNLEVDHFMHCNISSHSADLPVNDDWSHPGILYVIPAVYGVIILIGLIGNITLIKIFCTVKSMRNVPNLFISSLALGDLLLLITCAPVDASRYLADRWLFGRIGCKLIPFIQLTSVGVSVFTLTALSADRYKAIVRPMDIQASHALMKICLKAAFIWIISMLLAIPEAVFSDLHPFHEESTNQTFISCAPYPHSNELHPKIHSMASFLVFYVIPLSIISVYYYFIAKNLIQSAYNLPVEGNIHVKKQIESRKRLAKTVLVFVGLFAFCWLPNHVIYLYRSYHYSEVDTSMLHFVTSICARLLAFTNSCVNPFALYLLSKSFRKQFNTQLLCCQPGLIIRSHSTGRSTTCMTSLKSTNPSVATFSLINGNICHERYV

Row | Substance | change in the ka rate constant (association) [1] [times] | change in the kd rate constant (dissociation) [1] | GRP-R binding selectivity (rank order of affinity) (GRP-R)
1 | growth hormone | 1.7 | 1,600 times | 
2 | neuromedin |  |  | GRP >bombesin> neuromedin
